This is an account of results in US8598202B2, “Aryl-hydroxyethylamino-pyrimidines and triazines as modulators of fatty acid amide hydrolase” (Janssen Pharmaceutica NV, priority 2008, dated 2013).

Assay [1] has as its system thermal nociception. The note with it: rats; WO 04/033652; cited from earlier work.
Assay [2] concerns the target T1, FAAH (Homo sapiens, UniProt O00519).
T1 sequence (O00519 1-579): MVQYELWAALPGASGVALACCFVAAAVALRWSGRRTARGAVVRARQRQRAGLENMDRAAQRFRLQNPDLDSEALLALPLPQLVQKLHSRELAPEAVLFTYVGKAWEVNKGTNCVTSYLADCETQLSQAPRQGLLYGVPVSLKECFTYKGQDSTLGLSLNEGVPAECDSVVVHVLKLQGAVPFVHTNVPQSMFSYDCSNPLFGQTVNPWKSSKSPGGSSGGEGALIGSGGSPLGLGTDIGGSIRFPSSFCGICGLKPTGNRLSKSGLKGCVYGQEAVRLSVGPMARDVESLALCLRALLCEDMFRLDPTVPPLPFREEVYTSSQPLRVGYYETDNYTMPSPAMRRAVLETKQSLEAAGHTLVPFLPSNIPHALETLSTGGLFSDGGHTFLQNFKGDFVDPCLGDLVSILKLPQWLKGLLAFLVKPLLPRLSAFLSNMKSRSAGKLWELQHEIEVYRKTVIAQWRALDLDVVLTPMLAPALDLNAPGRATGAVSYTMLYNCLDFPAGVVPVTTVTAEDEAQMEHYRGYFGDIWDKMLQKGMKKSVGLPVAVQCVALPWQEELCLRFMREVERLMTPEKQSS
The note with it: reported; cited from earlier work.

The test system of assay [3] is thermal nociception. The settings on record: rat; cited from earlier work.
The next assay has as its system neuropathic pain. The note with it: rats; WO 02/087569; cited from earlier work.
Assay [4] has as its system acute thermal nociception. The note with it: rats; WO 02/087569; cited from earlier work.
Another assay concerns anxiety. The note with it: rats; Kathuria 2003; cited from earlier work.
The subject of the next assay is nociception. The note with it: rat; Kathuria 2003; cited from earlier work.
The subject of a further assay is spasticity. The note with it: Baker 2001; cited from earlier work.
The target of the next assay is T2, Rat FAAH-1 (Rattus norvegicus, UniProt P97612).
T2 sequence (P97612 1-579): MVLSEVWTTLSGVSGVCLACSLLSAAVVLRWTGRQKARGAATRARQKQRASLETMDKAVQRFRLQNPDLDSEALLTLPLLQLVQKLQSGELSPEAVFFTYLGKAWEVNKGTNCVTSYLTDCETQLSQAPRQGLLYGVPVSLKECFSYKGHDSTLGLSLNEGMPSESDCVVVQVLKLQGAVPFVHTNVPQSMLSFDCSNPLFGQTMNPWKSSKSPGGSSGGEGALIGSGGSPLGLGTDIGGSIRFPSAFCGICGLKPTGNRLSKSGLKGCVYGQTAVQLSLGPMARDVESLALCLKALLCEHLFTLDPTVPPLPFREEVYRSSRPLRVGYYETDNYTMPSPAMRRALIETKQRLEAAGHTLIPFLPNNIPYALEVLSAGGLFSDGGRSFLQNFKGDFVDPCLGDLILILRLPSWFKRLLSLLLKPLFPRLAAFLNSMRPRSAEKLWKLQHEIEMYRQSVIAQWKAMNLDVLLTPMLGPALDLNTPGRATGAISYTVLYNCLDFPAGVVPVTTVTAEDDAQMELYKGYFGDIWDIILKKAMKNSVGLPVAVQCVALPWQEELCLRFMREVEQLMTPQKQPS
As to the kind of experiment: Assay Method 2: rat FAAH-1 assay, 3H-anandamide hydrolysis in homogenate of SK-N-MC cells transfected with rat FAAH.

Assay [5] deals with T1, FAAH. As to the kind of experiment: Assay Method 1: FAAH assay, 3H-anandamide hydrolysis in homogenate of T84 cells or SK-N-MC cells transfected with human FAAH.

pIC50: −log10 of the molar value. Where a name gives a salt, the structure may show the parent alone.

Method for Rat FAAH-1: The assay mixture consisted of 50 μL of the cell homogenate, 10 μL of the test compound, and 40 μL of anandamide [1-^3H-ethanolamine] (^3H-AEA, Perkin-Elmer, 10.3 Ci/mmol), which was added last, for a final tracer concentration of 80 nM. The reaction mixture was incubated at rt for 1 h. During the incubation, 96-well Multiscreen filter plates (catalog number MAFCNOB50; Millipore, Bedford, Mass., USA) were loaded with 25 μL of activated charcoal (Multiscreen column loader, catalog number MACL09625, Millipore) and washed once with 100 μL of MeOH. […] After the 1 h incubation, 60 μL of the reaction mixture were transferred to the charcoal plates, which were then assembled on top of the DYNEX plates using Centrifuge Alignment Frames (catalog number MACF09604, Millipore). The unbound labeled ethanolamine was centrifuged through to the bottom plate (5 min at 2000 rpm), which was preloaded with the scintillant, as described above. The plates were sealed and left at rt for 1 h before counting on a Hewlett Packard TopCount.

For `O=C(CCCCCCc1ccccc1)c1ncc(-c2ccccn2)o1` [OL-135], the “analgesic activity in tail emersion test” value in the assay on thermal nociception [1] is listed as “analgesic activity”. The “inhibition of FAAH” value on FAAH [2] is on record as “potent inhibitor”. Besides, the “analgesic efficacy/activity in hot plate test” value in the assay on thermal nociception [3] is given as “analgesic activity”.
`Cc1nc(-c2ccccc2)c(-c2ccccc2)n1CCCCCCNC(=O)Oc1ccccc1F` [BMS-1]: in the assay on neuropathic pain, the “analgesic effect in Chung spinal nerve ligation model” value is “analgesic effect”. For the same molecule, the “analgesic effect in Hargraves test” value in assay [4] is listed as “analgesic effect”.
As for `NC(=O)c1cccc(-c2cccc(OC(=O)NC3CCCCC3)c2)c1` [URB-597], in the assay with thermal nociception [3], the “analgesic efficacy/activity in hot plate test” value is listed as “analgesic efficacy”. The “efficacy in zero plus maze model of anxiety” value with anxiety is listed as “efficacy”. For the same molecule, the “analgesic efficacy in formalin test” value in the assay with nociception is reported as “analgesic efficacy”.
`CCCCCCCCCCCCCCCCS(=O)(=O)F` [AM374]: in the assay with spasticity, the “reduction of spasticity in CREAE mice” value was “significantly reduce spasticity”.
As to `Nc1nc(NC[C@H](O)c2ccccc2)cc(-c2ccc(C(F)(F)F)c(Cl)c2)n1` [Example 61, (1R)-2-({2-Amino-6-[3-chloro-4-(trifluoromethyl)phenyl]pyrimidin-4-yl}amino)-1-phenylethanol trifluoroacetic acid salt], the negative logarithm of the IC50 (pIC50) at Rat FAAH-1 is 7.55; on FAAH [5], 8.22.
Taken in the same sequence, the figures for `CSc1cccc(-c2cc(NC[C@H](O)c3ccccc3)ncn2)c1` [Example 84, (1R)-2-({6-[3-(Methylsulfanyl)phenyl]pyrimidin-4-yl}amino)-1-phenylethanol trifluoroacetic acid salt] were 6.02 and 7.36.
Taken in the same sequence, the figures for `O=S(=O)(c1ccc(-c2cc(NC[C@H](O)c3ccccc3)ncn2)cc1)N1CCCC1` [Example 80, (1R)-1-Phenyl-2-({6-[4-(Pyrrolidin-1-ylsulfonyl)phenyl]pyrimidin-4-yl}amino)ethanol] were 6.18 and 7.17.
Taken in the same sequence, the figures for `OC(CNc1cc(-c2ccc(OC(F)(F)F)cc2)ncn1)c1cccc(Cl)c1` (stereo not drawn) [Example 116, 1-(3-Chlorophenyl)-2-[(6-{4-[(trifluoromethyl)oxy]phenyl}pyrimidin-4-yl)amino]ethanol] were 6.96 and 7.05.
Take `O[C@@H](CNc1ncnc(-c2ccc(C(F)(F)F)cc2)n1)c1ccccc1` [Example 103, (1R)-1-Phenyl-2-({4-[4-(trifluoromethyl)phenyl]-1,3,5-triazin-2-yl}amino)ethanol trifluoroacetic acid salt]: the pIC50 was 6.46 against Rat FAAH-1 and 6.52 at FAAH [5].
Take `O[C@@H](CNc1cc(-c2ccc3c(C(F)(F)C(F)(F)F)noc3c2)ncn1)c1ccccc1` [Example 188, (1R)-2-({6-[3-(pentafluoroethyl)-1,2-benzisoxazol-6-yl]pyrimidin-4-yl}amino)-1-phenylethanol trifluoroacetic acid salt]: the results for the pIC50 against Rat FAAH-1 and against FAAH [5] were 7.46 and 7.62, respectively.

A word on the pIC50: it is the negative decadic logarithm of the IC50, by convention in mol/L.
